Measurements published in US9073879B2, “Oxazole derivatives useful as modulators of FAAH” (MERCK SHARP & DOHME CORP., priority 2010, dated 2015).

What was measured:
[1] = target: T1, human FAAH (Homo sapiens, UniProt O00519); assay: FAAH whole cell assay (human Whole cell, FAAH_CHO, AAMCA substrate); type: cell-based; settings: CHO cells expressing human FAAH, whole cell format; read-out: human cell_IC50
T1 construct: The full length FAAH was subcloned into the mammalian expression vector, pcDEF.neo, using XbaI and EcoRI restriction sites; expressed in transfected cells
T1 sequence (O00519 1-579): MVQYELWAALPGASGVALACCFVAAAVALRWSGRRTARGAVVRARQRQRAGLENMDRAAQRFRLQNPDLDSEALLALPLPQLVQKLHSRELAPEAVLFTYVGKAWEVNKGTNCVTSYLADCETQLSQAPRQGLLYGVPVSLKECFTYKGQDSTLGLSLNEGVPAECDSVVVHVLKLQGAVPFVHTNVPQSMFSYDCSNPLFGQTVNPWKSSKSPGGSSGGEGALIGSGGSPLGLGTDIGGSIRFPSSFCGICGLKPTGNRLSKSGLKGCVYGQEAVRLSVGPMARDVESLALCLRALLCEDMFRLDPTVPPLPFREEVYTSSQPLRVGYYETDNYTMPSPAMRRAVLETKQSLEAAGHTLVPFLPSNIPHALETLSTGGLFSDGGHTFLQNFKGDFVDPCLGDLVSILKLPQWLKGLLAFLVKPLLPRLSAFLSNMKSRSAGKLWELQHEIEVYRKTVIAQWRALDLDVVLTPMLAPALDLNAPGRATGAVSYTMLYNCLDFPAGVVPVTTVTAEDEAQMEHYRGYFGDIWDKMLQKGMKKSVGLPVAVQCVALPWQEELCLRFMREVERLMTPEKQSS
Excerpt: (§1) To assist in assay development stable cell lines for human, murine and rat full length FAAH were developed. Human FAAH cDNA (Accession No: NM_001441.1) was purchased from Origene (Rockville, Md.). The full length FAAH was subcloned into the mammalian expression vector, pcDEF.neo, using XbaI and EcoRI restriction sites and used for stable cell line generation.
Murine (accession number NM_010173) and Rat FAAH (accession number NM_024132) was amplified by reverse transcriptase polymerase chain reaction (RT-PCR) from brain cDNA (BD Biosciences, San Jose, Calif.) using primers 1 and 2 or primers 1 and 3 respectively (see Table). The resulting PCR product was ligated into pCR4 TOPO and DNA sequence confirmed. The full length murine FAAH was subcloned into the mammalian expression vector, pcDEFneo using either EcoRI (murine) or KpnI and EcoRI (rat) restriction sites. Chinese hamster ovary cells (CHO) were transfected following manufacturers protocol (AMAXA). Forty eight hours post transfection, cells were trypsinized and transferred to 96 well plates in Iscove's DMEM media supplemented with 2 mM Glutamine, 10% fetal calf serum, 1 mg/ml geneticin and HT Supplement (0.1 mM sodium hypoxanthine, 0.016 mM thymidine) in order to isolate single clones. Following selection in geneticin, individual clones were selected and FAAH activity was assessed using a whole cell fluorescent anandamide assay, modified from Ramarao et al (2005). Following removal of tissue culture media cells were dislodged following addition of Cellstripper (Mediatech, Inc. Manassas, Va.) and transferred to 96 well black clear bottom assay plate, centrifuged at 1,000 rpm for 3 mins and media removed and replaced with assay buffer (50 mM Tris pH8.0, 1 mM EDTA, 0.1% fatty acid free BSA). The reaction was initiated by addition of fluorescent substrate, AMC Arachidonoyl Amide (Cayman Chemical, Ann Arbor, Mich.) to 1 μM and reaction allowed to proceed for 2 hours at room temperature. Release of fluorescence was monitored in a CytoFluor Multiplate Reader. Cells expressing the highest amount of FAAH activity were selected for study with FAAH inhibitors.
(§2) Assays are performed on either cell lysate or microsome fractions prepared as described or in whole cell format employing either the fluorescent substrate AAMCA (Cayman chemical, Ann Arbor, Mich.) or ^3H-anandamide ([ETHANOLAMINE-1-3H] American Radiolabeled Chemicals; 1 mCi/ml). The cell lysate or microsome assay is performed in black PerkinElmer OptiPlates-384F by adding FAAH_CHO (whole cell (shown as human Whole cell or Human WC), cell lysate (shown as human lysate of human LY) or microsome) in assay buffer (50 mM Phosphate, pH 8.0, 1 mM EDTA, 200 mM KCl, 0.2% glycerol, 0.1% fatty acid free BSA) to each well, followed by either DMSO or compound and allowed to incubate at 22-25° C. for fifteen minutes. AAMCA substrate was used to achieve a final concentration of 1 μM and reaction allowed to proceed at room temperature for 1-3 hours. Fluorescent release as a measure of FAAH activity was monitored by reading the plate in an Envision plate Reader (Ex: 360/40 nM; Em: 460/40 nM). Whole cell assay is conducted with cells harvested after rinsing tissue culture flasks three times with Ca^++Mg^++ free PBS, incubating for 10 min in Enzyme free dissociation media and centrifuging for 5 minutes at 1,000 rpm in table top centrifuge. Cells are resuspended in assay buffer at desired cell number in (4×10^4 cells/assay in 96-well format; 1×10^4 cells/assay in 384-well format) and assayed as described.

[2] = target: T1, human FAAH; assay: FAAH cell lysate assay (human lysate, FAAH_CHO, AAMCA substrate); type: biochemical; settings: lysate of CHO cells expressing human FAAH; read-out: human lysate_IC50
Excerpt: as §1
CHO cells expressing FAAH were used to prepare either crude cell lysate or microsome fractions. To harvest cells, tissue culture media was decanted, the monolayer washed three times with Ca^++Mg^++ free PBS and cells recovered after 15 mm in enzyme free dissociation media (Millipore Corp, Billerica, Mass.). Cells were collected by centrifuging at 2000 rpm for 15 min. and the cell pellet re-suspended with 50 mM HEPES (pH 7.4) containing 1 mM EDTA and the protease inhibitors aprotinin (1 mg/ml) and leupeptin (100 μM). The suspension was sonicated at 4° C. and the cell lysate recovered after centrifuging at 12,000×g (14,600 rpm, SS34 rotor) for 20 min at 4° C. to form a crude pellet of cell debris, nuclei, peroxisomes, lysosomes, and mitochondria; the supernatant or cell lysate was used for FAAH enzyme assay. In some cases, microsomes fractions enriched in FAAH were prepared by centrifuging the cell lysate further at 27,000 rpm (100,000×g) in SW28 rotor for 50 minutes at 4° C. The pellet containing FAAH-enriched microsomes was re-suspend in 50 mM HEPES, (pH 7.4) 1 mM EDTA, and any remaining DNA sheared by passage of material through a 23 gauge needle and aliquots of enzyme were store at −80° C. prior to use.
(American Radiolabeled Chemicals; 1 mCi/ml) with FAAH (Life Sciences (1995), 56, 1999-2005 and Journal of Pharmacology and Experimented Therapeutics (1997), 283, 729-734), Analytical. Biochemistry (2003), 318:270-5. In addition, routine assays were performed monitoring hydrolysis of araehidonyl-7-amino-4-methylcoumarin amide (AAMCA) by following increase in fluorescence upon release of 7-amino 4-methyl coumarin (λEX=355 nm, (λEM=460 nm). Analytical. Biochemistry (2005). 343:143-51
as §2

SMILES: CS(=O)(=O)c1ccc(NC(=O)c2nc(-c3ccc(F)cc3)oc2Sc2ccc(Cl)cn2)cc1 [Example A5.1, 5-[(5-chloropyridin-2-yl)sulfanyl]-2-(4-fluorophenyl)-N-[4-(methylsulfonyl)phenyl]-1,3-oxazole-4-carboxamide]
- IC50 [1]: 0.388 µM
- IC50 [2]: 0.061 µM

SMILES: CS(=O)(=O)N1CCC(NC(=O)c2nc(-c3ccc(F)cc3)oc2Sc2ccc(Cl)cn2)CC1 [Example A5.2, 5-[(5-chloropyridin-2-yl)sulfanyl]-2-(4-fluorophenyl)-N-[1-(methylsulfonyl)piperidin-4-yl]-1,3-oxazole-4-carboxamide]
- IC50 [1]: 0.4 µM
- IC50 [2]: 0.057 µM

SMILES: COC(=O)c1ccc(NC(=O)c2nc(-c3ccc(F)cc3)oc2Sc2ccc(Cl)cn2)cc1 [Example A5.3, methyl 4-[({5-[(5-chloropyridin-2-yl)sulfanyl]-2-(4-fluorophenyl)-1,3-oxazol-4-yl}carbonyl)amino]benzoate]
- IC50 [1]: 0.039 µM
- IC50 [2]: 0.01 µM

SMILES: Fc1ccc(-c2nc(COc3ccc4[nH]ncc4c3)c(Sc3ccc(Cl)cn3)o2)cc1 [Example B2.1, 5-({5-[(5-chloropyridin-2-yl)sulfanyl]-2-(4-fluorophenyl)-1,3-oxazol-4-yl}methoxy)-1H-indazole]
- IC50 [1]: 0.02 µM
- IC50 [2]: 0.003 µM

SMILES: CSc1ccc(OCc2nc(-c3ccc(F)cc3)oc2Sc2ccc(Cl)cn2)cc1 [Example B2.2, 5-chloro-2-{[2-(4-fluorophenyl)-4-{[4-(methylsulfanyl)phenoxy]methyl}-1,3-oxazol-5-yl]sulfanyl}pyridine]
- IC50 [1]: 0.507 µM
- IC50 [2]: 0.055 µM

SMILES: CS(=O)(=O)c1ccc(OCc2nc(-c3ccc(F)cc3)oc2Sc2ccc(Cl)cn2)cc1 [Example B2.3, 5-chloro-2-{[2-(4-fluorophenyl)-4-{[4-(methylsulfonyl)phenoxy]methyl}-1,3-oxazol-5-yl]sulfanyl}pyridine]
- IC50 [1]: 0.535 µM
- IC50 [2]: 0.054 µM

SMILES: Fc1ccc(-c2nc(COc3ccc4c(c3)OCO4)c(Sc3ccc(Cl)cn3)o2)cc1 [Example B2.4, 2-({4-[(1,3-benzodioxol-5-yloxy)methyl]-2-(4-fluorophenyl)-1,3-oxazol-5-yl}sulfanyl)-5-chloropyridine]
- IC50 [1]: 0.224 µM
- IC50 [2]: 0.024 µM

SMILES: COC(=O)c1ccc(OCc2nc(-c3ccc(F)cc3)oc2Sc2ccc(Cl)cn2)cn1 [Example B2.5, methyl 5-({5-[(5-chloropyridin-2-yl)sulfanyl]-2-(4-fluorophenyl)-1,3-oxazol-4-yl}methoxy)pyridine-2-carboxylate]
- IC50 [1]: 0.143 µM
- IC50 [2]: 0.02 µM

SMILES: N#Cc1ccc(OCc2nc(-c3ccc(F)cc3)oc2Sc2ccc(Cl)cn2)cc1 [Example B2.6, 4-({5-[(5-chloropyridin-2-yl)sulfanyl]-2-(4-fluorophenyl)-1,3-oxazol-4-yl}methoxy)benzonitrile]
- IC50 [1]: 0.36 µM
- IC50 [2]: 0.047 µM

SMILES: CC(O)c1ccc(OCc2nc(-c3ccc(F)cc3)oc2Sc2ccc(Cl)cn2)cc1 (stereo not drawn) [Example B2.7, 1-[4-({5-[(5-chloropyridin-2-yl)sulfanyl]-2-(4-fluorophenyl)-1,3-oxazol-4-yl}methoxy)phenyl]ethanol]
- IC50 [1]: 0.201 µM
- IC50 [2]: 0.012 µM

SMILES: OC(c1ccc(OCc2nc(-c3ccc(F)cc3)oc2Sc2ccc(Cl)cn2)cc1)C(F)(F)F (stereo not drawn) [Example B2.8, 1-[4-({5-[(5-chloropyridin-2-yl)sulfanyl]-2-(4-fluorophenyl)-1,3-oxazol-4-yl}methoxy)phenyl]-2,2,2-trifluoroethanol]
- IC50 [1]: 0.513 µM
- IC50 [2]: 0.13 µM

SMILES: COC(=O)c1ccc(OCc2nc(-c3ccc(F)cc3)oc2Sc2ccc(Cl)cn2)nc1 [Example B2.9, methyl 6-({5-[(5-chloropyridin-2-yl)sulfanyl]-2-(4-fluorophenyl)-1,3-oxazol-4-yl}methoxy)pyridine-3-carboxylate]
- IC50 [1]: 0.01 µM
- IC50 [2]: 0.002 µM

SMILES: Fc1ccc(-c2nc(COc3ccc4[nH]ccc4c3)c(Sc3ccc(Cl)cn3)o2)cc1 [Example B2.10, 5-({5-[(5-chloropyridin-2-yl)sulfanyl]-2-(4-fluorophenyl)-1,3-oxazol-4-yl}methoxy)-1H-indole]
- IC50 [1]: 0.298 µM
- IC50 [2]: 0.056 µM

SMILES: Clc1ccc(Sc2oc(C3CCOCC3)nc2COc2ccc3[nH]ncc3c2)cc1 [Example B2.17, 5-({5-[(4-chlorophenyl)sulfanyl]-2-(tetrahydro-2H-pyran-4-yl)-1,3-oxazol-4-yl}methoxy)-1H-indazole]
- IC50 [1]: 0.097 µM

SMILES: COC(=O)[C@H]1CC[C@@H](NCc2nc(-c3ccc(F)cc3)oc2Sc2ccc(Cl)cn2)CC1 [Example B5.11, methyl cis-4-[({5-[(5-chloropyridin-2-yl)sulfanyl]-2-(4-fluorophenyl)-1,3-oxazol-4-yl}methyl)amino] cyclohexanecarboxylate]
- IC50 [1]: 0.05 µM

SMILES: O[C@H]1CC[C@H](NCc2nc(C3CCOCC3)oc2Sc2ccc(Cl)cc2)CC1 [Example B5.13, trans-4-[({5-[(4-chlorophenyl)sulfanyl]-2-(tetrahydro-2H-pyran-4-yl)-1,3-oxazol-4-yl}methyl)amino] cyclohexanol]
- IC50 [1]: 2.83 µM

SMILES: COC(=O)[C@H]1CC[C@H](NCc2nc(C3CCOCC3)oc2Sc2ccc(Cl)cc2)CC1 [Example B5.14, methyl trans-4-[({5-[(4-chlorophenyl)sulfanyl]-2-(tetrahydro-2H-pyran-4-yl)-1,3-oxazol-4-yl}methyl)amino] cyclohexanecarboxylate]
- IC50 [1]: 0.027 µM
